Experimental data: patent publication US8106031B2, “Hydrolytically-resistant boron-containing therapeutics and methods of use” (Anacor Pharmaceuticals, Inc., priority 2006, dated 2012)
Converted amounts (≈) assume the structure as drawn. Like-named read-outs stand apart in the source and are kept apart here.

Key:
[1] = tested on: Trichophyton rubrum; test: MIC against T. rubrum (NCCLS broth dilution); format: cell-based; conditions: for MIC: Trichophyton rubrum, read-out: Minimum inhibitory concentration, T. rubrum
Description: (§1) To determine the antifungal activity of these compounds we screened for their minimum inhibitory concentrations (MIC) against the major dermatophytes that cause onychomycosis, T. rubrum and T. mentagrophytes, and against the yeasts and molds C. albicans, C. neoformans and A. fumigatus to test for their broad spectrum activity. The antifungal agent ciclopirox, currently in use for the topical treatment of onychomycosis, was used as a reference.
(§2) All MIC testing against Trichophyton rubrum, Trichophyton mentagrophytes, Candida albicans, Cryptococcus neoformans and Aspergillus fumigatus were determined following the National Committee for Clinical Laboratory Standards (NCCLS) guidelines for antimicrobial testing of yeasts and filamentous fungi.^i,ii
(§3) Two-fold serial dilutions of the test compounds were prepared in 96-well plates. […] Pfaller M A, Chaturvedi V, Espinel-Ingroff A, Ghannoum M A, Gosey L L, Odds F C, Rex J H, Rinaldi M G, Sheehan D J, Walsh T J, Warnock D W. NCCLS publication M27-A2—Reference Method for Broth Dilution Antifungal Susceptibility Testing of Yeasts; Approved Standard—Second Edition. […] Pfaller M A, Chaturvedi V, Espinel-Ingroff A, Ghannoum M A, Gosey L L, Odds F C, Rex J H, Rinaldi M G, Sheehan D J, Walsh T J, Warnock D W. NCCLS publication M38-A—Reference Method for Broth Dilution Antifungal Susceptibility Testing of Filamentous Fungi; Approved Standard.

[2] = tested on: Candida albicans; test: MIC against C. albicans (NCCLS broth dilution); format: cell-based; conditions: for MIC: Candida albicans, read-out: Minimum inhibitory concentration, C. albicans
Description: as §1, §2, §3

[3] = tested on: Cryptococcus neoformans; test: MIC against C. neoformans (NCCLS broth dilution); format: cell-based; conditions: for MIC: Cryptococcus neoformans, read-out: Minimum inhibitory concentration, C. neoformans
Description: as §1, §2, §3

[4] = tested on: Aspergillus fumigatus; test: MIC against A. fumigatus (NCCLS broth dilution); format: cell-based; conditions: for MIC: Aspergillus fumigatus, read-out: Minimum inhibitory concentration, A. fumigatus
Description: as §1, §2, §3

[5] = tested on: Trichophyton mentagrophytes; test: MIC against T. mentagrophytes (NCCLS broth dilution); format: cell-based; conditions: for MIC: Trichophyton mentagrophytes, read-out: Minimum inhibitory concentration, T. mentagrophytes
Description: as §1, §2, §3

[6] = Table 1, over 90% reduction of growth, 24-168 h at 35° C.

## OB1OCc2cc(F)c(F)cc21 [19k, 5,6-Difluoro-1,3-dihydro-1-hydroxy-2,1-benzoxaborolane]
[1]; Table 3, 1-hydroxy series (19)
  Minimum inhibitory concentration, T. rubrum: 4 µg/mL (≈ 23.5 µM)
[2]; Table 3, 1-hydroxy series (19)
  Minimum inhibitory concentration, C. albicans: 4 µg/mL (≈ 23.5 µM)
[3]; Table 3, 1-hydroxy series (19)
  Minimum inhibitory concentration, C. neoformans: 2 µg/mL (≈ 11.8 µM)
[4]; Table 3, 1-hydroxy series (19)
  Minimum inhibitory concentration, A. fumigatus: 2 µg/mL (≈ 11.8 µM)
[5]; Table 3, 1-hydroxy series (19)
  Minimum inhibitory concentration, T. mentagrophytes: 4 µg/mL (≈ 23.5 µM)

## Fc1ccc(B2OCc3cc(F)ccc32)cc1 [9h, 1,3-Dihydro-5-fluoro-1-(4-fluorophenyl)-2,1-benzoxaborole]
[1]; Table 2, 1-phenyl series (9)
  MIC: 4 µg/mL (≈ 17.4 µM)
[2]; Table 2, 1-phenyl series (9)
  MIC: 1 µg/mL (≈ 4.35 µM)
[3]; Table 2, 1-phenyl series (9)
  MIC: 1 µg/mL (≈ 4.35 µM)
[4]; Table 2, 1-phenyl series (9)
  MIC: 2 µg/mL (≈ 8.69 µM)
[5]; Table 2, 1-phenyl series (9)
  MIC: 4 µg/mL (≈ 17.4 µM)
other
  melting point: 75 to 77 °C

## OB1OCc2ccccc21 [19a, 1,3-Dihydro-1-hydroxy-2,1-benzoxaborole]
[1]
  MIC: 8 µg/mL (≈ 59.7 µM)
[2]
  MIC: 2 µg/mL (≈ 14.9 µM)
[3]
  MIC: 1 µg/mL (≈ 7.47 µM)
[4]
  MIC: 2 µg/mL (≈ 14.9 µM)
[5]
  MIC: 4 µg/mL (≈ 29.9 µM)

## OB1OCc2cc(F)ccc21 [19b, 1,3-Dihydro-5-fluoro-1-hydroxy-2,1-benzoxaborole]
[1]; Table 3, 1-hydroxy series (19)
  Minimum inhibitory concentration, T. rubrum: 1 µg/mL (≈ 6.58 µM)
[1]; [6]
  MIC: 1 µg/mL (≈ 6.58 µM)
[2]; [6]
  MIC: 0.5 µg/mL (≈ 3.29 µM)
[2]; Table 3, 1-hydroxy series (19)
  Minimum inhibitory concentration, C. albicans: 0.5 µg/mL (≈ 3.29 µM)
[3]; 19a relative to 9a, 19b relative to 9b
  fold increase in activity against C. neoformans: 8 fold
[3]; [6]
  MIC: 0.25 µg/mL (≈ 1.65 µM)
[3]; Table 3, 1-hydroxy series (19)
  Minimum inhibitory concentration, C. neoformans: 0.25 µg/mL (≈ 1.65 µM)
[4]; [6]
  MIC: 0.25 µg/mL (≈ 1.65 µM)
[4]; Table 3, 1-hydroxy series (19)
  Minimum inhibitory concentration, A. fumigatus: 0.25 µg/mL (≈ 1.65 µM)
[5]; Table 3, 1-hydroxy series (19)
  Minimum inhibitory concentration, T. mentagrophytes: 1 µg/mL (≈ 6.58 µM)
[5]; [6]
  MIC: 1 µg/mL (≈ 6.58 µM)

## Fc1ccc(B2OCc3ccccc32)cc1 [9e, 1,3-Dihydro-1-(4-fluorophenyl)-2,1-benzoxaborole]
[1]; Table 2, 1-phenyl series (9)
  MIC: 8 µg/mL (≈ 37.7 µM)
[2]; Table 2, 1-phenyl series (9)
  MIC: 4 µg/mL (≈ 18.9 µM)
[3]; Table 2, 1-phenyl series (9)
  MIC: 2 µg/mL (≈ 9.43 µM)
[4]; Table 2, 1-phenyl series (9)
  MIC: 2 µg/mL (≈ 9.43 µM)
[5]; Table 2, 1-phenyl series (9)
  MIC: 4 µg/mL (≈ 18.9 µM)
other
  melting point: 53 to 55 °C

## C=CB1OCc2cc(F)ccc21 [compound 11, 1,3-Dihydro-5-fluoro-1-vinyl-2,1-benzoxaborole]
[1]; [6]
  MIC: 4 µg/mL (≈ 24.7 µM)
[2]; [6]
  MIC: 1 µg/mL (≈ 6.17 µM)
[3]; [6]
  MIC: 4 µg/mL (≈ 24.7 µM)
[4]; [6]
  MIC: 2 µg/mL (≈ 12.3 µM)
[5]; [6]
  MIC: 2 µg/mL (≈ 12.3 µM)

## Cc1cscc1B1OCc2cc(F)ccc21 [compound 14, 1,3-Dihydro-5-fluoro-1-(4-methylthiophen-3-yl)-2,1-benzoxaborole]
[1]; [6]
  MIC: 1 µg/mL (≈ 4.31 µM)
[2]; [6]
  MIC: 1 µg/mL (≈ 4.31 µM)
[3]; [6]
  MIC: 1 µg/mL (≈ 4.31 µM)
[4]; [6]
  MIC: 1 µg/mL (≈ 4.31 µM)
[5]; [6]
  MIC: 2 µg/mL (≈ 8.62 µM)
other
  melting point: 51 to 53 °C

## Clc1cccc(B2OCc3ccccc32)c1 [9c, 1-(3-Chlorophenyl)-1,3-dihydro-2,1-benzoxaborole]
[1]; Table 2, 1-phenyl series (9)
  MIC: 16 µg/mL (≈ 70 µM)
[2]; Table 2, 1-phenyl series (9)
  MIC: 8 µg/mL (≈ 35 µM)
[3]; Table 2, 1-phenyl series (9)
  MIC: 4 µg/mL (≈ 17.5 µM)
[4]; Table 2, 1-phenyl series (9)
  MIC: 8 µg/mL (≈ 35 µM)
[5]; Table 2, 1-phenyl series (9)
  MIC: 8 µg/mL (≈ 35 µM)

## OB1OCc2ccc(F)cc21 [19m, 1,3-Dihydro-6-fluoro-1-hydroxy-2,1-benzoxaborole]
[1]; Table 3, 1-hydroxy series (19)
  MIC: 16 µg/mL (≈ 105 µM)
[2]; Table 3, 1-hydroxy series (19)
  MIC: 16 µg/mL (≈ 105 µM)
[3]; Table 3, 1-hydroxy series (19)
  MIC: 32 µg/mL (≈ 211 µM)
[4]; Table 3, 1-hydroxy series (19)
  MIC: 8 µg/mL (≈ 52.7 µM)
[5]; Table 3, 1-hydroxy series (19)
  MIC: 32 µg/mL (≈ 211 µM)

## N#Cc1ccc2c(c1)COB2O [19f, 5-Cyano-1,3-dihydro-1-hydroxy-2,1-benzoxaborolane]
[1]; Table 3, 1-hydroxy series (19)
  Minimum inhibitory concentration, T. rubrum: 8 µg/mL (≈ 50.3 µM)
[2]; Table 3, 1-hydroxy series (19)
  Minimum inhibitory concentration, C. albicans: 16 µg/mL (≈ 101 µM)
[3]; Table 3, 1-hydroxy series (19)
  Minimum inhibitory concentration, C. neoformans: 16 µg/mL (≈ 101 µM)
[4]; Table 3, 1-hydroxy series (19)
  Minimum inhibitory concentration, A. fumigatus: 8 µg/mL (≈ 50.3 µM)
[5]; Table 3, 1-hydroxy series (19)
  Minimum inhibitory concentration, T. mentagrophytes: 8 µg/mL (≈ 50.3 µM)

## OCc1ccc2c(c1)COB2O [19h, 1,3-Dihydro-1-hydroxy-5-hydroxymethyl-2,1-benzoxaborole]
[1]; Table 3, 1-hydroxy series (19)
  MIC: 64 µg/mL (≈ 390 µM)
[2]; Table 3, 1-hydroxy series (19)
  MIC: > 64 µg/mL
[3]; Table 3, 1-hydroxy series (19)
  MIC: > 64 µg/mL
[4]; Table 3, 1-hydroxy series (19)
  MIC: > 64 µg/mL
[5]; Table 3, 1-hydroxy series (19)
  MIC: 32 µg/mL (≈ 195 µM)

## Fc1cccc(B2OCc3ccccc32)c1 [9d, 1,3-Dihydro-1-(3-fluorophenyl)-2,1-benzoxaborole]
[1]; Table 2, 1-phenyl series (9)
  MIC: 8 µg/mL (≈ 37.7 µM)
[2]; Table 2, 1-phenyl series (9)
  MIC: 4 µg/mL (≈ 18.9 µM)
[3]; Table 2, 1-phenyl series (9)
  MIC: 4 µg/mL (≈ 18.9 µM)
[4]; Table 2, 1-phenyl series (9)
  MIC: 8 µg/mL (≈ 37.7 µM)
[5]; Table 2, 1-phenyl series (9)
  MIC: 16 µg/mL (≈ 75.5 µM)
